Measurements as given in PMC9696794, “Synthesis and Antimicrobial Activity of Short Analogues of the Marine Antimicrobial Peptide Turgencin A: Effects of SAR Optimizations, Cys-Cys Cyclization and Lipopeptide Modifications” (International Journal of Molecular Sciences, 2022).
In brackets after ≈: the same amount, converted by molar mass. Where a SMILES comes first, the peptide text is derived from it. Bridges are numbered along the chain shown (N, C = ends). The star is where a group is joined. Decanoyl = CCCCCCCCCC(=O)*; Octanoyl = CCCCCCCC(=O)*

Key:
[1] = test system: B. subtilis (Bs, ATCC 23857); assay: microbe, parasite or virus in culture; assay type: cell-based, Bacillus subtilis; settings: ATCC 23857, 24 h
Outline: (§1)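 Cultures grown in Mueller–Hinton broth were adjusted by OD600 to 2.5–3 × 10^4 CFU/mL and mixed with two-fold peptide dilutions from 256 to 1 µg/mL. Plates were incubated at 35 °C with OD595 monitored every hour for 24 h.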

[2] = test system: P. aeruginosa (Pa, ATCC 27853); assay: microbe, parasite or virus in culture; assay type: cell-based, Pseudomonas aeruginosa; settings: ATCC 27853, 24 h
Outline: as §1

[3] = test system: S. aureus (Sa, ATCC 9144); assay: microbe, parasite or virus in culture; assay type: cell-based, Staphylococcus aureus; settings: ATCC 9144, 24 h
Outline: as §1

[4] = test system: S. epidermidis RP62A (Se, ATCC 35984); assay: microbe, parasite or virus in culture; assay type: cell-based, Staphylococcus epidermidis; settings: ATCC 35984, 24 h
Outline: as §1

E. coli (Ec, ATCC 25922) = assay: microbe, parasite or virus in culture; assay type: cell-based, Escherichia coli; settings: ATCC 25922, 24 h
Outline: as §1

all bacterial strains = assay: Antibacterial MIC assay, all bacterial strains together (range or geometric mean); assay type: cell-based; settings: for GM (geometric mean of the MIC values against all bacterial strains): Table 1, six bacterial strains; for GM of MIC Tot. bact.: Table S3, all bacterial test strains, MIC >256 set to 256
Outline: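 Broth microdilution in Mueller–Hinton broth against B. subtilis, C. glutamicum, S. aureus, S. epidermidis RP62A, E. coli and P. aeruginosa; inoculum 2.5–3 × 10^4 CFU/mL, 35 °C, OD595 read hourly for 24 h. MIC: lowest peptide concentration giving OD below 10% of growth control; geometric mean across strains, triplicate.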

[5] = test system: human red blood cells (RBC); assay: Haemolytic activity assay; assay type: cell-based; settings: for Selectivity index (SI) G- / Selectivity index (SI) G+ / Selectivity index (SI) Fungi: Table S3, highest tested concentration used where EC50 above it; for Selectivity index (SI) G-: EC50/GM of Gram-negative strains; for Selectivity index (SI) G+: EC50/GM of Gram-positive strains; for Selectivity index (SI) Fungi: EC50/GM of fungi; for SI (selectivity index = EC50/GM): haemolytic EC50 over GM of MIC against all bacterial strains, Table 1; for RBC Tox. (EC50), haemolytic activity: human RBC, 1 h, 37 °C, concentration giving 50% haemolysis
Outline: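 Washed human erythrocytes (1% hematocrit final) incubated 1 h at 37 °C with agitation with lipopeptides at 500–3.9 μM in PBS (≤1% DMSO), duplicates. Haemoglobin release read at 545 nm relative to 0.1% Triton X-100; EC50 is 50% haemolysis, averaged from three experiments.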

[6] = test system: E. coli MC4100 (wild type, WT); assay: microbe, parasite or virus in culture; settings: wild type
Procedure: (§2) All cyclic and linear peptides were screened for antibacterial activity against four Gram-positive strains: B. subtilis (Bs, ATCC 23857), C. glutamicum (Cg, ATCC 13032), S. aureus (Sa, ATCC 9144) and S. epidermidis RP62A (Se, ATCC 35984), and two Gram-negative strains: E. coli (Ec, ATCC 25922) and P. aeruginosa (Pa, ATCC 27853). The activity was assessed using a broth microdilution assay according to a modified CLSI-based method. Briefly, overnight bacterial cultures were grown in Mueller–Hinton (MH) broth medium (Difco Laboratories, Detroit, MI, USA) for 2 h at room temperature. The optical density (OD600) was measured, and the bacterial suspensions were adjusted to 2.5–3 × 10^4 CFU/mL in MH medium. The bacterial suspension (50 µL) was distributed in 96-well plates (Nunc, Roskilde, Denmark) preloaded with two-fold dilution series (256 to 1 µg/mL) of peptide solutions (50 µL), giving a final well volume of 100 µL. The microplates were incubated in an EnVision 2103 microplate reader (PerkinElmer, Llantrisant, UK) at 35 °C, with OD595 recorded every hour for 24 h. MIC was defined as the lowest concentration of peptides showing an optical density less than 10% of the negative (growth) control, consisting of bacterial suspension and water. Polymyxin B sulfate (Sigma-Aldrich, St. Louis, MO, USA) and chlorhexidine acetate (CHX, Fresenius Kabi, Halden, Norway), both with concentrations ranging from 12.5 to 0.09 μg/mL, served as positive (growth inhibition) controls. All peptides were tested in triplicate.
(§3) MIC values were determined for all cyclic peptides against two E. coli strains: wild type (WT) MC4100 and the hyperpermeable variant NR698, having a deficient outer membrane. The NR698 strain, containing lptD4213/imp4213 mutation, was kindly provided by M. Grabowicz (Emory University School of Medicine, Rollins Research Center, Atlanta, GA, USA). The assay was performed in the same way as previously described for the antibacterial MIC assay.

[7] = test system: E. coli NR698 (outer membrane permeable mutant, imp4213); assay: microbe, parasite or virus in culture; settings: MC4100 NR698 imp4213, deficient outer membrane
Procedure: as §2, §3

[8] = test system: Gram-negative bacterial strains (E. coli and P. aeruginosa); assay: Antibacterial MIC assay, Gram-negative strains together (range or geometric mean); assay type: cell-based; settings: Table S3; MIC >256 set to 256
Outline: as §1

[9] = test system: Gram-positive bacterial strains; settings: Table S3; MIC >256 set to 256
Outline: as §1

[10] = test system: C. glutamicum (Cg, ATCC 13032); assay: microbe, parasite or virus in culture; assay type: cell-based, Corynebacterium glutamicum; settings: ATCC 13032, 24 h
Outline: as §1

Rhodotorula sp. (Rh) = assay: microbe, parasite or virus in culture; assay type: cell-based; settings: 48 h
Outline: (§4)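 Overnight cultures in potato dextrose broth with 2% glucose at 25–30 °C were diluted to approx. 4 × 10^5 spores/mL and mixed 1:1 with two-fold peptide dilutions plated at 256 to 1 µg/mL. After 48 h at room temperature, OD600 was read. MIC was the lowest concentration giving OD below 10% of the growth control, in triplicate.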

[11] = test system: C. albicans (Ca, ATCC 10231); assay: microbe, parasite or virus in culture; assay type: cell-based, Candida albicans; settings: ATCC 10231, 48 h
Outline: as §4

A. pullulans (Ap) = assay: microbe, parasite or virus in culture; assay type: cell-based, Aurobasidium pollulans; settings: 48 h
Outline: as §4

[12] = test system: fungi (A. pullulans, C. albicans, Rhodotorula sp.); assay: Antifungal MIC assay, all fungi together (range or geometric mean); assay type: cell-based; settings: Table S3; MIC >128 set to 128
Outline: as §4

Compound	Antimicrobial Activity (MIC) Gram + Bs [1]	Antimicrobial Activity (MIC) Gram − Pa [2]	Antimicrobial Activity (MIC) Gram + Sa [3]	Antimicrobial Activity (MIC) Gram + Se [4]	Antimicrobial Activity (MIC) Gram − Ec (E. coli (Ec, ATCC 25922))	GM (geometric mean of the MIC values against all bacterial strains) (all bacterial strains)	GM of MIC Tot. bact. (all bacterial strains)	Selectivity index (SI) G- [5]	Selectivity index (SI) G+ [5]	Selectivity index (SI) Fungi [5]	RBC Tox. (EC50), haemolytic activity [5]	MIC E. coli MC4100 (WT) [6]	MIC E. coli NR698 (mutant) [7]	GM of MIC G- [8]	GM of MIC G+ [9]	Antimicrobial Activity (MIC) Gram + Cg [10]	Antimicrobial Activity (MIC) Fungi Rh (Rhodotorula sp. (Rh))	Antimicrobial Activity (MIC) Fungi Ca [11]	Antimicrobial Activity (MIC) Fungi Ap (A. pullulans (Ap))	GM of MIC Fungi [12]	further results
CCCCCCCC(=O)N[C@H]1CSSC[C@@H](C(=O)N[C@@H](CCCCN)C(=O)N[C@@H](CC(C)C)C(N)=O)NC(=O)[C@H](CCCCN)NC(=O)[C@H](Cc2c[nH]c3ccccc23)NC(=O)CNC(=O)CNC(=O)[C@@H]2CCCN2C(=O)[C@H](CCCCN)NC(=O)[C@H](CCCCN)NC(=O)CNC1=O [Peptide C8-cTurg-1, C8 -(CGKKPGGWKC)KL-NH2] (Octanoyl-CGKKPGGWKCKL-NH2; disulfide 1-10)	4 µg/mL	128 µg/mL	128 µg/mL	32 µg/mL	32 µg/mL	25 µg/mL	25 µg/mL	> 15	> 59	> 29	>942 µg/mL	16 µg/mL (≈ 11.2 µM)	8 µg/mL (≈ 5.6 µM)	64 µg/mL	16 µg/mL	4 µg/mL	8 µg/mL	64 µg/mL	64 µg/mL	32 µg/mL	SI (selectivity index = EC50/GM) [5]: >37
CCCCCCCC(=O)N[C@H]1CSSC[C@@H](C(=O)N[C@@H](CCCNC(=N)N)C(=O)N[C@@H](CC(C)C)C(N)=O)NC(=O)[C@H](CCCNC(=N)N)NC(=O)[C@H](Cc2c[nH]c3ccccc23)NC(=O)[C@H](Cc2c[nH]c3ccccc23)NC(=O)CNC(=O)[C@H](Cc2c[nH]c3ccccc23)NC(=O)[C@H](CCCNC(=N)N)NC(=O)[C@H](CCCNC(=N)N)NC(=O)CNC1=O [Peptide C8-cTurg-6, C8- (CGRRWGWWRC)RL-NH2] (Octanoyl-CGRRWGWWRCRL-NH2; disulfide 1-10)	4 µg/mL	16 µg/mL	8 µg/mL	4 µg/mL	8 µg/mL	6 µg/mL	6 µg/mL	3	6	1	30 µg/mL	8 µg/mL (≈ 4.55 µM)	8 µg/mL (≈ 4.55 µM)	11 µg/mL	5 µg/mL	4 µg/mL	32 µg/mL	64 µg/mL	64 µg/mL	51 µg/mL	SI (selectivity index = EC50/GM) [5]: 5
CCCCCCCCCC(=O)N[C@H]1CSSC[C@@H](C(=O)N[C@@H](CCCCN)C(=O)N[C@@H](CC(C)C)C(N)=O)NC(=O)[C@H](CCCCN)NC(=O)[C@H](Cc2c[nH]c3ccccc23)NC(=O)CNC(=O)CNC(=O)[C@@H]2CCCN2C(=O)[C@H](CCCCN)NC(=O)[C@H](CCCCN)NC(=O)CNC1=O [Peptide C10-cTurg-1, C10 -(CGKKPGGWKC)KL-NH2] (Decanoyl-CGKKPGGWKCKL-NH2; disulfide 1-10)	2 µg/mL	32 µg/mL	16 µg/mL	4 µg/mL	8 µg/mL	6 µg/mL	6 µg/mL	> 60	> 239	> 47	>956 µg/mL	8 µg/mL (≈ 5.49 µM)	4 µg/mL (≈ 2.75 µM)	16 µg/mL	4 µg/mL	2 µg/mL	4 µg/mL	64 µg/mL	32 µg/mL	20 µg/mL	
CCCCCCCCCC(=O)N[C@H]1CSSC[C@@H](C(=O)N[C@@H](CCCCN)C(=O)N[C@@H](CC(C)C)C(N)=O)NC(=O)[C@H](CCCCN)NC(=O)[C@H](Cc2c[nH]c3ccccc23)NC(=O)CNC(=O)[C@H](Cc2c[nH]c3ccccc23)NC(=O)[C@H](Cc2c[nH]c3ccccc23)NC(=O)[C@H](CCCCN)NC(=O)[C@H](CCCCN)NC(=O)CNC1=O [Peptide C10-cTurg-2, C10- (CGKKWWGWKC)KL-NH2] (Decanoyl-CGKKWWGWKCKL-NH2; disulfide 1-10)	2 µg/mL	8 µg/mL	4 µg/mL	4 µg/mL	8 µg/mL	5 µg/mL	5 µg/mL	13	32	3	106 µg/mL	8 µg/mL (≈ 4.78 µM)	4 µg/mL (≈ 2.39 µM)	8 µg/mL	3 µg/mL	4 µg/mL	16 µg/mL	64 µg/mL	32 µg/mL	32 µg/mL	SI (selectivity index = EC50/GM) [5]: 24
